Assay: Brain penetration (Kp,uu) in CD-1 mice after single IV bolus, with plasma and brain binding by equilibrium dialysis
Assay type: in vivo
Settings: mouse, brain and plasma (unbound brain/unbound plasma), male CD-1 mice, single IV bolus 1 mg/kg
Experimental: The compounds disclosed herein were tested on CD-1 mice for brain penetration (Kp, uu) according to the following procedures.
Nine male CD-1 mice were administered TEST COMPOUND by single intravenous bolus administration at 1 mg/kg. The vehicle used for IV study was 5% DMSO, 5% solutol, 20% PEG300 and 70% water. The detailed dosing and sampling regimens are described in the following tables.
The body weights were in the range from 28.81 to 31.25 g for males on the first dosing day. All animals received a single intravenous bolus administration of TEST COMPOUND from the tail vein.
Each blood collection (about 0.06 mL per time point) was performed from saphenous vein of each animal into pre-chilled commercial K2-EDTA tubes as anti-coagulant and placed on wet ice until centrifugation.
Brain tissue was homogenized using homogenizing buffer (15 mM PBS (pH7.4): MeOH=2:1) at the ratio of 1:9 (1 g tissue with 9 mL buffer, the dilution ratio is 10). The tissue homogenate was kept at −60° C. or lower until LC-MS/MS analysis.
The concentrations of TEST COMPOUND in plasma and brain were determined by using an LC-MS/MS method.
The plasma and brain concentration of TEST COMPOUND in study animals was subjected to a non-compartmental pharmacokinetic analysis by using the Phoenix WinNonlin software program (version 6.3 or above, Pharsight). The linear/log trapezoidal rule was applied in obtaining the PK parameters.
Mouse Kp, uu=(% free in mouse brain*concentration in mouse brain)/(% free in mouse plasma*concentration in mouse plasma)
(§1) The dialysis apparatus was assembled according to the manufacturer's instruction. Each Cell was filled with 120 μL of spiked plasma sample and dialyzed against equal volume of dialysis buffer (PBS). The assay was performed in duplicate. The dialysis plates were sealed and incubated in an incubator at 37° C. with 5% CO2 and rotated at 100 rpm for 6 hours. At the end of incubation, the seals were removed and 50 μL of samples from both buffer and plasma chambers were transferred to a 96-well plate.
as §1, with “with 150” for “with 120”, “of brain homogenate” for “of spiked plasma”, “and brain homogenate” for “and plasma”, “transferred into separate tubes on” for “transferred to”, “a” for “a 96-well”

Question: For `Fc1cccc(F)c1C1=Nc2c(Cl)n[nH]c2-c2cc(N3CCOCC3)ccc2N1` (single isomer, unassigned) [Example 35, 4-(3-chloro-5-(2,6-difluorophenyl)-1,6-dihydrobenzo[d]pyrazolo[3,4-f][1,3]diazepin-9-y1)morpholine], which Kp uu is on record?
Answer: < 0.1

Question: With `Cc1n[nH]c2c1N=C(c1c(F)cccc1F)Nc1ccc(N3CCO[C@H](C(C)(C)O)C3)cc1-2` (single isomer, unassigned) [Example 36] as the compound, how does the Kp uu read?
Answer: < 0.1

Question: For `Cc1n[nH]c2c1N=C(c1c(F)cccc1F)Nc1c-2cc(N2CCO[C@@H](C(C)(C)O)C2)nc1C` (single isomer, unassigned) [Example 39], which Kp uu is on record?
Answer: < 0.1

Question: For `Cc1n[nH]c2c1N=C(c1c(F)cccc1F)Nc1cnc(N3CCS(=O)(=O)CC3)cc1-2` [Example 2, 4-[8-(2,6-difluorophenyl)-5-methyl-3,4,7,9,12-pentazatricyclo[8.4.0.02,6]tetradeca-1(10),2(6),4,7,11,13-hexaen-13-y1]-1,4-thiazinane 1,1-dioxide], which Kp uu is on record?
Answer: < 0.1

Question: Which Kp uu does the source give for `Cc1n[nH]c2c1N=C(c1c(F)cccc1F)Nc1cnc(N3C[C@@H]4C[C@H]3CO4)cc1-2` [Example 6, (1S,4S)-5-[8-(2,6-difluorophenyl)-5-methyl-3,4,7,9,12-pentazatricyclo[8.4.0.02,6]tetradeca-1(10),2(6),4,7,11,13-hexaen-13-y1]-2-oxa-5-azabicyclo[2.2.1]heptane] here?
Answer: < 0.1

Question: Which Kp uu does the source give for `[2H]C1([2H])OC([2H])([2H])C([2H])([2H])N(c2cc3c(cn2)NC(c2c(F)cccc2F)=Nc2c(C)n[nH]c2-3)C1([2H])[2H]` [Example 14, 2,2,3,3,5,5,6,6-octadeuterio-4-[8-(2,6-difluorophenyl)-5-methyl-3,4,7,9,12-pentazatricyclo[8.4.0.02,6]tetradeca-1(10),2(6),4,7,11,13-hexaen-13-yl]morpholine] here?
Answer: < 0.1

Question: For `Cc1n[nH]c2c1N=C(c1c(F)cccc1F)Nc1cnc(N3CCC[C@@H](C#N)C3)cc1-2` [Example 18, (3R)-1-[8-(2,6-difluorophenyl)-5-methyl-3,4,7,9,12-pentazatricyclo[8.4.0.02,6]tetradeca-1(10),2(6),4,7,11,13-hexaen-13-yl]piperidine-3-carbonitrile], which Kp uu is on record?
Answer: < 0.1

Question: Which Kp uu does the source give for `[2H]C1([2H])OC([2H])([2H])C([2H])([2H])N(c2cc3c(cn2)NC(c2c(F)cccc2F)=Nc2cn[nH]c2-3)C1([2H])[2H]` [Example 20, 2,2,3,3,5,5,6,6-octadeuterio-4-[8-(2,6-difluorophenyl)-3,4,7,9,12-pentazatricyclo[8.4.0.02,6]tetradeca-1(10),2(6),4,7,11,13-hexaen-13-yl]morpholine] here?
Answer: < 0.1

Question: With `Fc1cccc(F)c1C1=Nc2c(Cl)n[nH]c2-c2cc(N3CCOCC3)ncc2N1` [Example 23, 4-(3-chloro-5-(2,6-difluorophenyl)-1,6-dihydropyrazolo[4,3-d]pyrido[4,3-f][1,3]diazepin-9-yl)morpholine] as the compound, how does the Kp uu read?
Answer: < 0.1

Question: Which Kp uu does the source give for `C[C@H]1CN(c2cc3c(cn2)NC(c2c(F)cccc2F)=Nc2c(Cl)n[nH]c2-3)C[C@H](C)O1` [Example 26, (2S,6S)-4-(3-chloro-5-(2,6-difluorophenyl)-1,6-dihydropyrazolo[4,3-d]pyrido[4,3-f][1,3]diazepin-9-yl)-2,6-dimethylmorpholine] here?
Answer: < 0.1

Question: Which Kp uu does the source give for `[2H]C([2H])([2H])c1n[nH]c2c1N=C(c1c(F)cccc1F)Nc1cnc(N3CCO[C@H](C)C3)cc1-2` [Example 27, (2R)-4-[8-(2,6-difluorophenyl)-5-(trideuteriomethyl)-3,4,7,9,12-pentazatricyclo[8.4.0.02,6]tetradeca-1(10),2(6),4,7,11,13-hexaen-13-y1]-2-methyl-morpholine] here?
Answer: < 0.1

Question: With `Cc1n[nH]c2c1N=C(c1c(F)cccc1F)Nc1cnc(-c3cnn(CC(F)F)c3)cc1-2` [Example 28, 13-[1-(2,2-difluoroethyl)pyrazol-4-y1]-8-(2,6-difluorophenyl)-5-methyl-3,4,7,9,12-pentazatricyclo[8.4.0.02,6]tetradeca-1(10),2(6),4,7,11,13-hexaene] as the compound, how does the Kp uu read?
Answer: ≥ 0.1

Question: With `Fc1cccc(F)c1C1=Nc2cn[nH]c2-c2cc(N3CCOCC3)ncc2N1` [Example 33, 4-[8-(2,6-difluorophenyl)-3,4,7,9,12-pentazatricyclo[8.4.0.02,6]tetradeca-1(10),2(6),4,7,11,13-hexaen-13-yl]morpholine] as the compound, how does the Kp uu read?
Answer: < 0.1

Question: With `Cc1n[nH]c2c1N=C(c1c(F)cccc1F)Nc1c-2cc(N2CCO[C@@H](CO)C2)nc1C` [Example 37, (R)-(4-(5-(2,6-difluorophenyl)-3,7-dimethyl-1,6-dihydropyrazolo[4,3-d]pyrido[4,3-f][1,3]diazepin-9-yl)morpholin-2-y1)methanol] as the compound, how does the Kp uu read?
Answer: < 0.1

Question: With `Cc1n[nH]c2c1N=C(c1c(F)cccc1F)Nc1c-2cc(N2CCC(C)(O)CC2)nc1C` [Example 41, 1-(5-(2,6-difluorophenyl)-3,7-dimethyl-1,6-dihydropyrazolo[4,3-d]pyrido[4,3-f][1,3]diazepin-9-yl)-4-methylpiperidin-4-ol] as the compound, how does the Kp uu read?
Answer: < 0.1

Question: With `Cn1cc(-c2cc3c(cn2)NC(c2c(F)cccc2F)=Nc2c(Cl)n[nH]c2-3)cn1` [Example 54, 3-chloro-5-(2,6-difluorophenyl)-9-(1-methyl-1H-pyrazol-4-yl)-1,6-dihydropyrazolo[4,3-d]pyrido[4,3-f][1,3]diazepine] as the compound, how does the Kp uu read?
Answer: < 0.1
